Values quoted from earlier work in patent publication US20070021506A1, “Stress relieving composition” (Ajinomoto Co., Inc., priority 2004, published 2007).
Like-named read-outs stand apart in the source and are kept apart here.

Key:
5-HT4 receptor = molecular target: T1, 5-HT4 receptor (Cavia porcellus, UniProt O70528); conditions: in vitro
T1 construct: from tissue; host or cells: guinea pig ileum

benzodiazepine receptor = conditions: Non-patent document 9
5HT-4 receptor = molecular target: T2, 5HT-4 receptor (Rattus norvegicus, UniProt Q62758)
T2 construct: suppressed anxiety disorder of rats induced by a 5HT-4 receptor agonist; from tissue; host or cells: living rats (whole animal; oral L-lysine, s.c. agonist)
T2 sequence (Q62758 whole entry): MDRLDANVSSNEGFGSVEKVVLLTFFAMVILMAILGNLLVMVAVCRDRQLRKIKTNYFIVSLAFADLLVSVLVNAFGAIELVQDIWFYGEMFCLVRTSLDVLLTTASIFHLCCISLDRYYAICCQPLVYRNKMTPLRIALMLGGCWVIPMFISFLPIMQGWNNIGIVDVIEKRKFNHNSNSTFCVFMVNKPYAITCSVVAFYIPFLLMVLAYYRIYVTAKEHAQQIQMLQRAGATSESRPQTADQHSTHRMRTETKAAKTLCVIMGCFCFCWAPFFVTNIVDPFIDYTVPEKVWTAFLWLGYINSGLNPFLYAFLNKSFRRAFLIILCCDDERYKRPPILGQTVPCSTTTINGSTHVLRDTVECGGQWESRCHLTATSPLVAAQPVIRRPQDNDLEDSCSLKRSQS

T1 sequence (O70528 whole entry): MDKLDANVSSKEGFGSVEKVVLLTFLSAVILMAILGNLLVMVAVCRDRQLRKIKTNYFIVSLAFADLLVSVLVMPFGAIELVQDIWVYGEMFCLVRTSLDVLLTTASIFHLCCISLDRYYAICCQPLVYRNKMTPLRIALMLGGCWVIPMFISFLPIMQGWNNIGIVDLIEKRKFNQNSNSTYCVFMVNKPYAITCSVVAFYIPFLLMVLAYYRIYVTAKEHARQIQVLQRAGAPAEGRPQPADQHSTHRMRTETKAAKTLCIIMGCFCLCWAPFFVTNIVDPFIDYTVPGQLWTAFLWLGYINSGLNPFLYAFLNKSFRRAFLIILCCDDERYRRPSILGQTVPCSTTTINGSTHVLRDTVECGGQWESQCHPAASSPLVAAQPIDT

In the case of `N[C@@H](Cc1ccc(O)cc1)C(=O)O` [Tyr, tyrosine], the mood (normal subjects exposed to mental stress) is given as “improved the mood significantly” and the “effect in terms of mood criterion” value (patients with depression) is given as “a significant effect in terms of mood criterion was not observed”.
In the case of `N[C@@H](Cc1c[nH]c2ccccc12)C(=O)O` [Trp, tryptophan], the mood enhancement effect (clinical study conducted recently (Non-patent document 3)) is listed as “could not be fully supported” and the stress-induced mood (comparative clinical study, taken alone or together with carbohydrates) is listed as “relieved”.
For `NCCCC[C@H](N)C(=O)O` [L-lysine], the “5-HT-induced contraction of the guinea pig ileum” value (5-HT4 receptor; 0.07 mmol/dl, P<0.05) is given as “blocked”, the “5-HT-induced contraction of the guinea pig ileum” value (5-HT4 receptor; 0.7 mmol/dl, P<0.01) is given as “blocked” and the “action at benzodiazepine receptor” value (benzodiazepine receptor) is given as “benzodiazepine receptor agonist”. For the same compound, the “anxiety disorder of rats induced by a 5HT-4 receptor agonist” value (5HT-4 receptor; 1 g/kg, p.o., agonist 3.0 mmol/l s.c.) was “significantly suppressed” and the “action at 5HT-4 receptor” value (5HT-4 receptor; rat, in vivo) was “partially serves as a 5HT-4 receptor antagonist”.
